Assay results from PMC4763312, “Comparative study of curcumin and curcumin formulated in a solid dispersion: Evaluation of their antigenotoxic effects” (Genetics and Molecular Biology, 2015).

Columns and labels:
Assay type in all cases: in vivo, Wistar rats
[1] = Variation in body mass and relative mass of the kidney
Method: Male Wistar albino rats, at 5-6 weeks of age and weighing approximately 160 g were obtained from the Animal Facility of the Ribeirão Preto Campus of the University of São Paulo. The animals were divided into 12 groups of six for each treatment. The experimental protocols applied in this study were approved by the Local Ethics Committee for Animal Use (CEUA) of Ribeirão Preto, Brazil, Register No.08.1.1417.53.2. […] These were administered via gavage at 72 h, 48 h, 24h or 30 min before the intraperitoneal administration of saline solution or the antitumoral agent cDDP, which was used as a damage-inducing agent. The body weights of the rats were recorded daily. At 24 h after cDDP administration (5th day), the animals were euthanized for sample collection. […] The same animals were used in genotoxicity assays (micronucleus test and comet assay) and biochemical tests (GSH and TBARS), as well as for the expression analysis of the Tp53 gene.

[2] = system: kidney cells; assay: Alkaline comet assay, kidney cells
Method: (§1) These were administered via gavage at 72 h, 48 h, 24h or 30 min before the intraperitoneal administration of saline solution or the antitumoral agent cDDP, which was used as a damage-inducing agent. The body weights of the rats were recorded daily. At 24 h after cDDP administration (5th day), the animals were euthanized for sample collection. […] The same animals were used in genotoxicity assays (micronucleus test and comet assay) and biochemical tests (GSH and TBARS), as well as for the expression analysis of the Tp53 gene. The alkaline version of the comet assay was performed according to protocols proposed by [Singh et al. (1988)] and [Tice et al. (2000)], with minor modifications (the slides were stained with GelRed, 1:10,000, Biotium-USA). To check for possible cytotoxic effects of the treatments, cell viability was determined via the Trypan blue dye exclusion method. […] Following lysis, the slides were placed in a horizontal electrophoresis unit containing 300 mM NaOH and 1 mM EDTA (pH > 13) for 20 min at an electric field strength of 0.78 V/cm (25 V and 300 mA). The slides were neutralized and stained with Gel Red (1:10,000). A total of 100 nucleoids per animal (two slides of 50 nucleoids each) were analysed at a 400x magnification using a fluorescence microscope (Axiostar, Zeiss, Germany) equipped with a 515-560 nm excitation filter, a 590 nm barrier filter and an integrated digital camera. Tail intensity (% tail DNA) was evaluated using the Comet Assay IV software (Perceptive Instruments, Suffolk, UK).

[3] = system: peripheral blood cells; assay: Alkaline comet assay, peripheral blood cells
Method: as §1

[4] = Cell viability by Trypan blue dye exclusion, kidney cells; settings: male, Wistar, rat, kidney cells, oral, % in relation to saline solution group
Method: (§2) These were administered via gavage at 72 h, 48 h, 24h or 30 min before the intraperitoneal administration of saline solution or the antitumoral agent cDDP, which was used as a damage-inducing agent. The alkaline version of the comet assay was performed according to protocols proposed by [Singh et al. (1988)] and [Tice et al. (2000)], with minor modifications (the slides were stained with GelRed, 1:10,000, Biotium-USA). To check for possible cytotoxic effects of the treatments, cell viability was determined via the Trypan blue dye exclusion method. […] Following lysis, the slides were placed in a horizontal electrophoresis unit containing 300 mM NaOH and 1 mM EDTA (pH > 13) for 20 min at an electric field strength of 0.78 V/cm (25 V and 300 mA). The slides were neutralized and stained with Gel Red (1:10,000). A total of 100 nucleoids per animal (two slides of 50 nucleoids each) were analysed at a 400x magnification using a fluorescence microscope (Axiostar, Zeiss, Germany) equipped with a 515-560 nm excitation filter, a 590 nm barrier filter and an integrated digital camera. Tail intensity (% tail DNA) was evaluated using the Comet Assay IV software (Perceptive Instruments, Suffolk, UK).

[5] = Cell viability by Trypan blue dye exclusion, peripheral blood cells; settings: male, Wistar, rat, peripheral blood cells, oral, % in relation to saline solution group
Method: as §2

[6] = system: bone marrow erythrocytes; assay: Micronucleus test in bone marrow
Method: These were administered via gavage at 72 h, 48 h, 24h or 30 min before the intraperitoneal administration of saline solution or the antitumoral agent cDDP, which was used as a damage-inducing agent. The body weights of the rats were recorded daily. At 24 h after cDDP administration (5th day), the animals were euthanized for sample collection. […] The same animals were used in genotoxicity assays (micronucleus test and comet assay) and biochemical tests (GSH and TBARS), as well as for the expression analysis of the Tp53 gene. The micronucleus test was performed according to the protocol described by [Schmid (1975)]. Bone marrow cells were harvested from rat femurs, mixed with fetal bovine serum, homogenized and centrifuged, and the pellet was resuspended for slide preparations. The slides were then fixed, stained with Giemsa solution and coded. Three slides were produced for each animal. Coded slides were scored under 1000X magnification using a light microscope (Zeiss).

[7] = system: reduced glutathione (GSH) in kidney tissue; assay: GSH level in the kidney; settings: for GSH: kidney
Method: These were administered via gavage at 72 h, 48 h, 24h or 30 min before the intraperitoneal administration of saline solution or the antitumoral agent cDDP, which was used as a damage-inducing agent. The body weights of the rats were recorded daily. At 24 h after cDDP administration (5th day), the animals were euthanized for sample collection. […] The same animals were used in genotoxicity assays (micronucleus test and comet assay) and biochemical tests (GSH and TBARS), as well as for the expression analysis of the Tp53 gene. GSH concentrations in kidney tissue were determined according to method described by [Sedlak and Lindsay (1968)]. […] A 2.0 mL volume of Tris-EDTA buffer (0.2 M, pH 8.9) and 0.1 mL of 5,5 ‘-dithio-bis-2-nitrobenzoic acid (DTNB) in 0.01 M methanol were added to a 0.5 mL aliquot of the supernatant. The samples were maintained at room temperature for 15 min and then read at 412 nm (RayLeigh UV-1601 spectrophotometer). Standard curves were prepared using α-cysteine, and results were expressed as nmol GSH/g protein. The quantification of total proteins was done at 650 nm (RayLeigh UV-1601 spectrophotometer) using Lowry’s method ([Hartree, 1972]).

[8] = system: thiobarbituric-acid-reactive substances (TBARS) in kidney tissue; assay: TBARS level in the kidney; settings: for TBARS: kidney
Method: These were administered via gavage at 72 h, 48 h, 24h or 30 min before the intraperitoneal administration of saline solution or the antitumoral agent cDDP, which was used as a damage-inducing agent. The body weights of the rats were recorded daily. At 24 h after cDDP administration (5th day), the animals were euthanized for sample collection. […] The same animals were used in genotoxicity assays (micronucleus test and comet assay) and biochemical tests (GSH and TBARS), as well as for the expression analysis of the Tp53 gene. TBARS measurements in kidney tissue were performed according to [Buege and Aust (1978)]. A 0.5 mL aliquot of the homogenate was added to 1 mL of thiobarbituric acid solution (containing 15% trichloroacetic acid and 0.25 M HCl) to a final concentration of […]. This mixture was warmed in a water bath for 15 min and centrifuged for 20 min at 180 x g. The absorbance of the supernatant was determined at 535 nm (UV-VisB582 Micronal spectrophotometer), and the results were expressed as nmol TBARS/mg protein. […] The quantification of total proteins was done at 650 nm (RayLeigh UV-1601 spectrophotometer) using Lowry’s method ([Hartree, 1972]).

[9] = system: Tp53 mRNA; assay: Quantification of Tp53 mRNA in kidney tissue (RT-qPCR); settings: 50 mg/kg b.w. together with cDDP 6 mg/kg b.w.
Method: These were administered via gavage at 72 h, 48 h, 24h or 30 min before the intraperitoneal administration of saline solution or the antitumoral agent cDDP, which was used as a damage-inducing agent. Total RNA was extracted from kidney tissue using the SV Total Isolation System kit (Promega, Madison, WI, USA), according the manufacturer's instructions. […] The extracted RNA was converted to cDNA using the SuperScriptTM III kit (Invitrogen, Carlsbad, CA, USA), and RT-qPCR was performed in a CFX96 Real-Time PCR Detection System (Bio-Rad, CA, USA) using the Bio-Rad Real-Time PCR system with ABsoluteTM QPCR SYBR1 Green Mix (Invitrogen, Carlsbad, CA, USA), where fluorescence detection was performed following each annealing/extension cycle. The following reference genes were tested for suitability: b-actin (b-actin-forward: […] reverse: […] (GAPDH-forward: […]-reverse: [NT] and […]-forward: […]-reverse [NT] Based on stability, we selected b-actin as the endogenous control gene for RT-qPCR. Gene-specific primers for Tp53 (Tp53-forward: [NT]; Tp53-reverse: […] Louis, MO, USA). RT-qPCR efficiencies for Tp53 and b-actin were satisfactory, and the relative expression of Tp53 mRNA was normalized to the amount of b-actin using the method of relative 2^-ΔΔCt quantification described by [Livak and Schmittgen (2001)].

[10] = system: kidney cells; assay: Cell viability by Trypan blue dye exclusion, kidney cells; settings: % in relation to saline solution group; GLA gavage + cDDP 6 mg/kg b.w. i.p.
Method: as §2

[11] = system: peripheral blood cells; assay: Cell viability by Trypan blue dye exclusion, peripheral blood cells; settings: % in relation to saline solution group; GLA gavage + cDDP 6 mg/kg b.w. i.p.
Method: as §2

[12] = 50 mg/kg b.w. gavage x4 + cDDP 6 mg/kg b.w. i.p.
[13] = 50 mg/kg b.w. gavage x4 + i.p. saline
[14] = 50 mg/kg b.w. gavage x4 + cDDP 6 mg/kg b.w. i.p., 24 h
[15] = GLA gavage + cDDP 6 mg/kg b.w. i.p.
[16] = GLA gavage + cDDP 6 mg/kg b.w. i.p., 24 h

For `COc1cc(C=CC(=O)CC(=O)C=Cc2ccc(O)c(OC)c2)ccc1O` [CMN, 1,7-bis[4-hydroxy 3-methoxyphenyl]-1,6-heptadiene-3,5-dione], the “Body weight variation, interval 2 (day 4 to 5)” value [1, 12] was 0.1 ± 2.5 g, the Kidney/body weight [1, 12] was 0.90 ± 0.06% and the “Body weight variation, interval 1 (days 1 to 4)” value ([1]; 50 mg/kg b.w. gavage x4 + cDDP 6 mg/kg b.w. i.p. group) was 31.8 ± 4.7 g. The “Body weight variation, interval 1 (days 1 to 4)” value [1, 13] was 31.7 ± 6.6 g, the “Body weight variation, interval 2 (day 4 to 5)” value [1, 13] was 8.2 ± 2.4 g and the Kidney/body weight [1, 13] was 0.96 ± 0.05%. The “Reduction of body weight gain triggered by cDDP (in words)” value ([1]; combined application with cDDP) was “did not alter the reduction of body weight gain”, the “% tail DNA, kidney” value [2, 12] was 4.0 ± 0.8% and the “% tail DNA, kidney” value [2, 13] was 5.5 ± 2.8%. For the same molecule, the “Comet assay, in association with cDDP compared to cDDP-only group (in words)” value ([2]; with cDDP 6 mg/kg b.w.) was “did not induce significant alterations”, the “% tail DNA, peripheral blood” value [3, 12] was 2.1 ± 0.6% and the “% tail DNA, peripheral blood” value [3, 13] was 3.2 ± 0.9%. For the same molecule, the viability at 24 h [4, 12] was 88.5 ± 2.2%, the viability at 24 h [4, 13] was 89 ± 2.3% and the viability at 24 h [5, 12] was 99.2 ± 0.7%. For the same molecule, the viability at 24 h [5, 13] was 98.7 ± 0.5%, the “Frequency of micronucleated polychromatic erythrocytes, MNPCEs/1000 PCEs” value (“Frequency” below) [6, 12] was 7.08 ± 3.04 ^# MNPCEs/1000 PCEs and the “Frequency” value [6, 13] was 1.91 ± 1.27 MNPCEs/1000 PCEs. The “Formation of cDDP-induced micronuclei (in words)” value ([6]; CMN SD 5, 25 and 50 mg/kg b.w., unmodified CMN 50 mg/kg b.w., p < 0.05) was “significantly reduced”, the “GSH concentration in renal tissue (in words)” value ([7]; administered alone) was “did not alter” and the GSH [7, 14] was 17.0 ± 1.4 nmol/mg protein. For the same molecule, the GSH [7, 13] was 14.4 ± 1.2 nmol/mg protein, the “TBARS concentration in renal tissue (in words)” value ([8]; administered alone) was “did not alter” and the TBARS [8, 14] was 0.222 ± 0.064 nmol/mg protein. The TBARS [8, 13] was 0.236 ± 0.018 nmol/mg protein, the “TBARS levels, administered together with cDDP (in words)” value ([8]; with cDDP 6 mg/kg b.w., p > 0.05 vs saline solution group) was “able to maintain the TBARS levels observed in the saline solution group” and the “Tp53 expression compared to saline solution group” value [9] was “up-regulated”.

With `[NH2][Pt]([NH2])([Cl])[Cl]` [cDDP, Cisplatin] the “Body weight variation, interval 2 (day 4 to 5)” value [1, 15] was 0.8 ± 2.2 g, the Kidney/body weight [1, 15] was 1.02 ± 0.11% and the “Body weight variation, interval 1 (days 1 to 4)” value ([1]; GLA gavage + cDDP 6 mg/kg b.w. i.p. group) was 27.5 ± 6.1 g. The “% tail DNA, kidney” value [2, 15] was 3.8 ± 0.7 %, the “% tail DNA, peripheral blood” value [3, 15] was 2.2 ± 0.8% and the “Cell viability, kidney” value [10] was 86.5 ± 3.1%. The “Cell viability, peripheral blood” value [11] was 98.8 ± 0.7%, the “Frequency” value [6, 15] was 12.75 ± 3.32 MNPCEs/1000 PCEs and the “PCE/(PCE + NCE) ratio” value ([6]; in 500 erythrocytes, GLA gavage + cDDP 6 mg/kg b.w. i.p.) was 44.8 ± 4.9%. The GSH [7, 16] was 18.5 ± 0.6 nmol/mg protein and the TBARS [8, 16] was 0.286 ± 0.014 nmol/mg protein.
